pIC50: −log10 of the molar value. Activity calls are given as the source filed them.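 The calls were made as follows: active = IC50 at or below 20 µM; inactive = the rest.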
The compounds below were run against Dual specificity protein phosphatase 3 (Homo sapiens) (UniProt P51452) (assay: human DUSP3 enzyme inhibition – biochemical, fluorescence, OMFP substrate, selectivity assay for LMPTP inhibitor project, dose response (AID 686961)). Conditions: recombinant VHR-1 enzyme, OMFP fluorogenic substrate, 50 min.
Dual specificity protein phosphatase 3 (Homo sapiens), sequence (P51452 whole entry, looked up): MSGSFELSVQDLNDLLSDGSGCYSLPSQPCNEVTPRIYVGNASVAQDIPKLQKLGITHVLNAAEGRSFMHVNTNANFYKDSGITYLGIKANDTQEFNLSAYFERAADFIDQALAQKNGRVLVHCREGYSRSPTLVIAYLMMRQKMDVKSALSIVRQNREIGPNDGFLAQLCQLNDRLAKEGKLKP

Row | Compound | pIC50 | IC50
1 | CCN(c1ccccc1)S(=O)(=O)c1cc(C(=O)O)ccc1C | 5.69 | 
2 | CCOC(=O)C1=C(C)N=c2sc(=Cc3ccc(OCC(=O)O)cc3)c(=O)n2C1c1ccc(SC)cc1 (stereo unspecified) | 5.74 | 
3 | O=c1cc(-c2cc3ccccc3o2)c2cc(O)ccc2o1 | 5.25 | 
4 | CCOc1cc(/C=N/N=C2/NC(=O)C(CC(=O)O)S2)ccc1OCc1ccc(Cl)cc1Cl (stereo unspecified) | 5.48 | 
5 | O=C(N/N=C/c1ccc(OC(=O)c2cccs2)cc1)c1cccc(F)c1 | 5.25 | 
6 | O=C(CCCOc1ccc(Cl)cc1Cl)NNC(=O)c1ccc(NC(=O)c2ccccc2)cc1 | 6.15 | 
7 | CN(C)c1nc(N)nc(/C(C#N)=C/C2CC3C=CC2C3)n1 (stereo unspecified) |  | > 80 µM (inactive)
8 | Cc1c(CCC(=O)O)c(=O)oc2c(C)c(OCc3ccccc3Cl)ccc12 |  | inactive
9 | O=C(N/N=C/c1ccc(Br)s1)c1cccc([N+](=O)[O-])c1 | 5.71 | 
10 | O=C(N/N=C\C=C\c1ccc(Br)cc1)c1ccc2c(c1)OCO2 | 5.79 | 
11 | O=C(NNC(=O)c1cc2cc3ccccc3nc2s1)c1cccc(Cl)c1 | 5.70 | 
12 | CCOC(=O)C1=C(C)N=c2sc(=Cc3ccc(OCC(=O)O)cc3)c(=O)n2C1c1ccc(Cl)cc1 (stereo unspecified) | 5.58 | 
13 | Clc1cccc(Cl)c1Cn1cnc(=NCc2ccco2)c2[nH]cnc21 |  | inactive
14 | C/C(=N\NC(=O)c1ccc(OC2OCCOC2Oc2ccc(C(=O)N/N=C(\C)c3ccncc3)cc2)cc1)c1ccncc1 (stereo unspecified) | 5.22 | 
15 | O=C(CCN1C(=O)/C(=C/c2ccc3c(c2)OCO3)SC1=S)Nc1ccc(C(=O)O)cc1 | 4.89 | 
16 | COc1ccc(Nc2nc(NCc3cccs3)nc3ccsc23)cc1OC | 4.91 | 
17 | CNc1nc(NC)c2cn[nH]c2n1 |  | > 80 µM (inactive)
18 | CCCCC(=O)Nc1ccc(C(=O)NNC(=O)c2ccc(C)c(Br)c2)cc1 | 5.42 | 
19 | CC(=O)Nc1ccc(CNc2nc(NCc3cccs3)nc3ccsc23)cc1 | 5.03 | 
20 | CCc1nc(N)nc(N)c1-c1ccc(Cl)cc1 |  | > 80 µM (inactive)
21 | O=C1C(=Cc2cn(-c3ccccc3)nc2-c2ccc(OCc3ccccc3)cc2)SC(=S)N1CCS(=O)(=O)O | 6.26 | 
22 | O=C(/C=C/c1ccccc1Cl)Nc1ccc2c(c1)C(=O)NC2=O | 5.64 | 
23 | Cc1cc(N2CCC(C)CC2)nc2cccc(O)c12 | 4.71 | 
24 | NC(=O)Cc1ccc(C(=O)CSc2nnc(-c3ccncc3)n2C2CC2)s1 | 5.83 | 
25 | CN1/C(=C/C=C/c2n(C)c3cc([N+](=O)[O-])c([N+](=O)[O-])cc3[n+]2C)C(C)(C)c2ccccc21 |  | inactive

Row | Compound | pIC50 | IC50
26 | CCc1nc(N)nc(N)c1-c1ccc(Cl)c(N=[N+]=[N-])c1 |  | inactive
27 | NS(=O)(=O)c1ccc(CNC(=O)Cc2cccs2)cc1 | 5.85 | 
28 | CCOC(=O)Cn1c(=NC(=O)c2sc3ccccc3c2Cl)sc2cc(S(N)(=O)=O)ccc21 | 6.40 | 
29 | COc1cccc(CNc2nc(NCC3CC3)nc3ccsc23)c1OC | 4.84 | 
30 | COc1ccc(Nc2nc(=O)c3cc([N+](=O)[O-])ccc3s2)cc1 | 5.41 | 
31 | COc1ccccc1CNc1nc(NCc2cnc(C)cn2)c2sccc2n1 |  | inactive
32 | NS(=O)(=O)c1ccc(CCNC(=O)c2ccc3nccnc3c2)cc1 |  | inactive
33 | Cc1nc(N)nc(N)c1-c1ccc([N+](=O)[O-])cc1 |  | > 80 µM (inactive)
34 | CCc1nc(N)nc(N)c1-c1ccc(NCCN)c([N+](=O)[O-])c1 | 4.97 | 
35 | COCCNc1nc(NCc2cccc(OC)c2OC)c2sccc2n1 |  | inactive
36 | COc1ccc(-c2ccc(/C=N/NC(=O)c3cccnc3)o2)c([N+](=O)[O-])c1 | 5.02 | 
37 | COc1ccccc1CNc1nc(NCc2ccc(NC(C)=O)cc2)c2sccc2n1 | 5.25 | 
38 | COc1cccc(N2CCN(C(=O)c3ccc(CSc4nc5ccncc5[nH]4)cc3)CC2)c1 | 4.91 | 
39 | O=C(N/N=C/c1cccc(Br)c1)c1ccc(Br)cc1 | 4.96 | 
40 | O=C(/C=C/c1ccc(Br)cc1)NC(=O)c1ccccc1O | 4.98 | 
41 | Cc1cc2oc(=O)cc(-c3cc4ccccc4o3)c2cc1O | 5.54 | 
42 | Cc1c(CCC(=O)O)c(=O)oc2c(C)c3occ(-c4ccc(Cl)cc4)c3cc12 | 5.27 | 
43 | Nc1nc(N)c(Cc2ccc(Cl)cc2Cl)c(N)n1 |  | inactive
44 | N=c1c(C(=O)NCc2ccc3c(c2)OCO3)cc2c(=O)n3ccccc3nc2n1Cc1cccnc1 | 4.91 | 
45 | O=C(COc1ccc(/C=N/NC(=O)c2ccc(O)cc2)cc1)Nc1cccc([N+](=O)[O-])c1 | 5.24 | 
46 | Cc1ccccc1Nc1cc(C)c2c(O)cccc2n1 |  | > 80 µM (inactive)
47 | O=C(Nc1ccc2oc(-c3ccccc3F)nc2c1)c1ccc([N+](=O)[O-])o1 | 5.80 | 
48 | Cc1[nH]ccc(=O)c1Cc1c(Cl)cccc1Cl |  | > 80 µM (inactive)
49 | CC1C(=O)N(Cc2cn(Cc3ccco3)nn2)CCS(=O)(=O)N1Cc1ccc(-c2cccnc2)cc1 (stereo unspecified) | 6.04 | 

Second part, the compound after the results:

Row | pIC50 | IC50 | Compound
50 |  | > 80 µM (inactive) | c1ccc(-c2nc(NCCCn3ccnc3)c3ccccc3n2)cc1
51 |  | > 80 µM (inactive) | c1ccc(-c2nc(NCc3cccnc3)c3ccccc3n2)cc1
52 | 4.92 |  | CC(=O)Nc1ccc(S(=O)(=O)N2CCN(c3nc(NC4CCCC4)c4ccccc4n3)CC2)cc1
53 |  | > 80 µM (inactive) | Cc1cccc2nc(-c3ccccc3)nc(N[C@@H](CO)c3ccccc3)c12
54 | 5.86 |  | CC(Nc1nc(N2CCNCC2)nc2ccccc12)c1ccccc1 (stereo unspecified)
55 | 5.90 |  | Cc1ccc(-c2nc(NC(=O)CSc3cc(C)c4ccccc4n3)ns2)cc1
56 |  | > 80 µM (inactive) | O=C(OCCNc1nc(-c2ccccc2)nc2ccccc12)c1cccnc1
57 |  | inactive | Cc1cc(N2CCN(S(=O)(=O)c3ccc(Cl)c(Cl)c3)CC2)c2ccccc2n1
58 |  | inactive | Cc1ccc(-c2nc(NCc3cccnc3)c3ccccc3n2)cc1
59 | 5.62 |  | COc1cccc2c1[C@@H]1CN(CCCCn3c(=O)[nH]c4c(sc5ncc(-c6ccccc6)nc54)c3=O)C[C@@H]1CO2
60 |  | inactive | Fc1ccccc1-c1nc(NC2CCCC2)c2ccccc2n1
61 | 4.90 |  | c1ccc(-c2cc(NCCN3CCCCC3)c3ccccc3n2)cc1
62 |  | > 80 µM (inactive) | Cc1cccc(-c2nc(NCCCN3CCOCC3)c3ccccc3n2)c1
63 |  | > 80 µM (inactive) | c1ccc(-c2nc(NCCCN3CCOCC3)c3ccccc3n2)cc1
64 | 5.23 |  | CCOC(=O)c1cc(-c2ccc(N3CCOCC3)cc2)nn1-c1ccccc1C(=O)O
65 |  | > 80 µM (inactive) | Cc1ccc(-c2nc(NCCN3CCOCC3)c3ccccc3n2)cc1
66 |  | > 80 µM (inactive) | O=C(OCCNc1nc(-c2ccccc2)nc2ccccc12)c1ccncc1
67 |  | > 80 µM (inactive) | c1ccc(-c2cc(N3CCCCC3)c3ccccc3n2)cc1
68 | 4.75 |  | Cc1[nH]ccc2cc3nc4ccccc4c3cc12
69 |  | inactive | CC(C)Oc1ccc(-c2nc(NCC3CCCO3)c3ccccc3n2)cc1 (stereo unspecified)
70 |  | inactive | CC(C)OCCCNc1nc(-c2ccccc2)nc2ccccc12
71 |  | > 80 µM (inactive) | Fc1ccccc1-c1nc(NCCCN2CCOCC2)c2ccccc2n1

From PubChem BioAssay AID686961 (Sanford-Burnham Center for Chemical Genomics, 2013)
